Legend:
Assay in all cases: Cell viability assay (ATPlite)
Format in all cases: cell-based
11-18 = conditions: Homo sapiens; 11-18 cell line, 72 hours incubation
Summary of the method: (§1)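 Cells grew 24 h, then received 9-point √10-fold compound series in duplicate (0.4% DMSO final) for 72 h. ATP content was read by ATPlite luminescence and normalized to vehicle controls as % viability. IC50 came from a four-parameter logistic fit; curves with F-value above 1.5 were invalidated, with IC50 then set at the top concentration.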

BT-20 = conditions: Homo sapiens; BT-20 cell line, 72 hours incubation
Summary of the method: as §1

BT-474 = conditions: Homo sapiens; BT-474 cell line, 72 hours incubation
Summary of the method: as §1

COLO 829 = conditions: Homo sapiens; COLO 829 cell line, 72 hours incubation
Summary of the method: as §1

DEL = conditions: Homo sapiens; DEL cell line, 72 hours incubation
Summary of the method: as §1

Daoy = conditions: Homo sapiens; Daoy cell line, 72 hours incubation
Summary of the method: as §1

ES-2 = conditions: Homo sapiens; ES-2 cell line, 72 hours incubation
Summary of the method: as §1

EoL-1 = conditions: Homo sapiens, EOL1; EoL-1 cell line, 72 hours incubation
Summary of the method: as §1

FaDu = conditions: Homo sapiens; FaDu cell line, 72 hours incubation
Summary of the method: as §1

HCC1954 = conditions: Homo sapiens; HCC1954 cell line, 72 hours incubation
Summary of the method: as §1

HCC4006 = conditions: Homo sapiens; HCC4006 cell line, 72 hours incubation
Summary of the method: as §1

HEC-1-B = conditions: Homo sapiens; HEC-1-B cell line, 72 hours incubation
Summary of the method: as §1

HL-60 = conditions: Homo sapiens; HL-60 cell line, 72 hours incubation
Summary of the method: as §1

HT-1080 = conditions: Homo sapiens; HT-1080 cell line, 72 hours incubation
Summary of the method: as §1

HT-29 = conditions: Homo sapiens; HT-29 cell line, 72 hours incubation
Summary of the method: as §1

Hep-G2 = conditions: Homo sapiens, HepG2; Hep-G2 cell line, 72 hours incubation
Summary of the method: as §1

Hs 578T = conditions: Homo sapiens; Hs 578T cell line, 72 hours incubation
Summary of the method: as §1

Hs 746.T = conditions: Homo sapiens, Hs746T; Hs 746.T cell line, 72 hours incubation
Summary of the method: as §1

Hs 852.T = conditions: Homo sapiens; Hs 852.T cell line, 72 hours incubation
Summary of the method: as §1

Jurkat E6.1 = conditions: Homo sapiens; Jurkat E6.1 cell line, 72 hours incubation
Summary of the method: as §1

KLE = conditions: Homo sapiens; KLE cell line, 72 hours incubation
Summary of the method: as §1

LNCaP clone FGC = conditions: Homo sapiens; LNCaP clone FGC cell line, 72 hours incubation
Summary of the method: as §1

MOLT-4 = conditions: Homo sapiens; MOLT-4 cell line, 72 hours incubation
Summary of the method: as §1

Rh30 = conditions: Homo sapiens; Rh30 cell line, 72 hours incubation
Summary of the method: as §1

SW1573 = conditions: Homo sapiens; SW1573 cell line, 72 hours incubation
Summary of the method: as §1

SW872 = conditions: Homo sapiens; SW872 cell line, 72 hours incubation
Summary of the method: as §1

SW982 = conditions: Homo sapiens; SW982 cell line, 72 hours incubation
Summary of the method: as §1

T98G = conditions: Homo sapiens; T98G cell line, 72 hours incubation
Summary of the method: as §1

TOV-21G = conditions: Homo sapiens, TOV21G; TOV-21G cell line, 72 hours incubation
Summary of the method: as §1

UM-UC-3 = conditions: Homo sapiens, UMUC3; UM-UC-3 cell line, 72 hours incubation
Summary of the method: as §1

UWB1.289 = conditions: Homo sapiens, UWB1289; UWB1.289 cell line, 72 hours incubation
Summary of the method: as §1

## O=C(c1ccc(Oc2ccccc2)cc1Cl)c1c[nH]c2ncnc(N[C@@H]3CC[C@@H](CO)OC3)c12 [nemtabrutinib]
11-18
  IC50: 2.62 µM
BT-20
  IC50: 14.5 µM
BT-474
  IC50: 3.11 µM
COLO 829
  IC50: 1.54 µM
DEL
  IC50: 15.4 µM
Daoy
  IC50: 7.17 µM
ES-2
  IC50: 0.929 µM
EoL-1
  IC50: 0.059 µM
FaDu
  IC50: 1.3 µM
HCC1954
  IC50: 1.32 µM
HCC4006
  IC50: 6.17 µM
HEC-1-B
  IC50: 0.376 µM
HL-60
  IC50: 2.18 µM
HT-1080
  IC50: 4.8 µM
HT-29
  IC50: 0.369 µM
Hep-G2
  IC50: 0.979 µM
Hs 578T
  IC50: 11.4 µM
Hs 746.T
  IC50: 11.4 µM
Hs 852.T
  IC50: 4.02 µM
Jurkat E6.1
  IC50: 0.267 µM
KLE
  IC50: 2.11 µM
LNCaP clone FGC
  IC50: > 31.6 µM
MOLT-4
  IC50: 6.87 µM
Rh30
  IC50: 5.52 µM
SW1573
  IC50: 6.3 µM
SW872
  IC50: 0.666 µM
SW982
  IC50: 10.7 µM
T98G
  IC50: 4.52 µM
TOV-21G
  IC50: 3.78 µM
UM-UC-3
  IC50: 5.35 µM
UWB1.289
  IC50: 2.49 µM
